Laboratory results from PMC6002838 (The Journal of antibiotics, 2017).
In brackets after ≈: the same amount, converted by molar mass.

Tests used:
[1] = system: KSHV LANA latency antigen; type: cell-based, Kaposi Sarcoma Herpesvirus (KSHV); conditions: 100 μM, 6 days, BC3 cells, flow cytofluorometry
MDM2-p53 complex = MDM2-p53 complex (Homo sapiens, UniProt Q00987); assay: MDM2-p53 complex inhibition assay; type: binding; conditions: for inhibition at 100 µM: read-out: Inhibition of MDM2-p53 complex formation (pre-treat)
[2] = Cytotoxicity on BC3 cells; type: cell-based; conditions: human
[3] = system: latent KSHV DNA in BC3 cells; assay: qPCR detection of latent KSHV DNA; type: cell-based, Kaposi Sarcoma Herpesvirus (KSHV)
[4] = Cytotoxicity on THP-1 cells; type: cell-based; conditions: human, THP-1 cells (KSHV-negative macrophage cell line)
[5] = Cytotoxicity on HUVEC cells; type: cell-based; conditions: human, HUVEC cells (primary human umbilical cord endothelial cells)

Chain of MDM2-p53 complex (Q00987 whole entry, one chain of several): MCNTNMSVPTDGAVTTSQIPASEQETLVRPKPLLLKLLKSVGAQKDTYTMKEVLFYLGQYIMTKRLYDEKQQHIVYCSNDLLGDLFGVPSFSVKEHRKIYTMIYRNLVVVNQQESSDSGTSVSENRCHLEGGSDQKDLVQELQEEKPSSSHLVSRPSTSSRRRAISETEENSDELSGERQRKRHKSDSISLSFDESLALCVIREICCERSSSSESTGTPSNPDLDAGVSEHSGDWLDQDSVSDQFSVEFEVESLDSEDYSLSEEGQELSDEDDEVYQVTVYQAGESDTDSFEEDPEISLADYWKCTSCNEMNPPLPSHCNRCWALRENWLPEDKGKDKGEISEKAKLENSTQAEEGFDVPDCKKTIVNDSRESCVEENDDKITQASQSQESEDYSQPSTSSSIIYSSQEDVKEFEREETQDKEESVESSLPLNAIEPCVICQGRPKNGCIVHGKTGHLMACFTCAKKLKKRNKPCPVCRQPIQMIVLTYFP

## Nc1ccc(S(N)(=O)=O)cc1 [SA4, sulfanilamide]
[1]
  LANA inhibition: 78±6%
  Residual fluorescence (RF): 21%
MDM2-p53 complex
  inhibition at 100 µM: 56%

## [H]/N=C(/N)NS(=O)(=O)c1ccc(N)cc1 [SG3, sulfaguanidine]
[2]
  CC50 at 6 days: 100 ± 25 µg/mL (≈ 467 µM)
[3]
  SI (CC50/EC50): 4.76
MDM2-p53 complex
  inhibition at 100 µM: ~48%
[4]
  CC50 at 6 days: 125 ± 31 µg/mL (≈ 583 µM)
[5]
  CC50 at 6 days: 500 ± 125 µg/mL (≈ 2330 µM)

## CS(=O)(=O)Nc1ccc([N+](=O)[O-])cc1Oc1ccccc1 [Nimesulide, nimesulide]
[1]
  LANA inhibition: 54±5%
  Residual fluorescence (RF): about 46%

## Cc1cc(NS(=O)(=O)c2ccc(N)cc2)no1 [BC6, sulfamethoxazole]
MDM2-p53 complex
  inhibition at 100 µM: 50%

## Nc1ccc(S(=O)(=O)Nc2nccs2)cc1 [ST5, sulfathiazole]
[2]
  CC50 at 6 days: 100 ± 25 µg/mL (≈ 392 µM)
[3]
  SI (CC50/EC50): 16.6
MDM2-p53 complex; 100 μM, compounds added after formation of the complex
  Disruption of MDM2-p53 complex (post-treat): about 48%
MDM2-p53 complex
  inhibition at 100 µM: ~70%
[4]
  CC50 at 6 days: 30 ± 15 µg/mL (≈ 117 µM)
[5]
  CC50 at 6 days: 250 ± 62 µg/mL (≈ 979 µM)
